Assay results as given in ChEMBL document CHEMBL1909046, “DrugMatrix in vitro pharmacology data”.

Tests used:
[1] = DRUGMATRIX: Calcium Channel Type L, Phenylalkylamine radioligand binding (ligand: [3H] (-)-Desmethoxyverapamil (D-888)); format: cell membranes, Rattus norvegicus, Wistar, Brain, Membrane; conditions: Not Active = under 50% inhibition at 10 µM
Melanocortin receptor 3 = Melanocortin receptor 3 (Homo sapiens, UniProt P41968); format: cell membranes, HEK293, Membrane; conditions: hek293; also: in other assays of this panel Not Active means under 50% inhibition at 10 µM
Chain of Melanocortin receptor 3 (P41968 whole entry): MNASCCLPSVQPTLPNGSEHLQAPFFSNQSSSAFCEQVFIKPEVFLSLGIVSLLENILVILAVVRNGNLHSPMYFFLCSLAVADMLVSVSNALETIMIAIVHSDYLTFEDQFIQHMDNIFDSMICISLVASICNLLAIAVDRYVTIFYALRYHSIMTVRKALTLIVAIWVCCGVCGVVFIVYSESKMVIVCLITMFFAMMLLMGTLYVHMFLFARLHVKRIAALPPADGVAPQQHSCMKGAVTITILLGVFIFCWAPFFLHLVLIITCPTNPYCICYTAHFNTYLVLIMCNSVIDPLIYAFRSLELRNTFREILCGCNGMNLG

[2] = DRUGMATRIX: Calcium Channel Type L, Dihydropyridine radioligand binding (ligand: [3H] Nitrendipine); format: cell membranes, Rattus norvegicus, Wistar, Cerebral cortex, Membrane; conditions: Not Active = under 50% inhibition at 10 µM
[3] = biological target: Sigma non-opioid intracellular receptor 1 (Homo sapiens, UniProt Q99720); test: DRUGMATRIX: Sigma1 radioligand binding (ligand: [3H] Haloperidol); format: cell membranes, Jurkat, Membrane; conditions: Not Active = under 50% inhibition at 10 µM; for Ki: read-out: Ki
Chain of Sigma non-opioid intracellular receptor 1 (Q99720 whole entry): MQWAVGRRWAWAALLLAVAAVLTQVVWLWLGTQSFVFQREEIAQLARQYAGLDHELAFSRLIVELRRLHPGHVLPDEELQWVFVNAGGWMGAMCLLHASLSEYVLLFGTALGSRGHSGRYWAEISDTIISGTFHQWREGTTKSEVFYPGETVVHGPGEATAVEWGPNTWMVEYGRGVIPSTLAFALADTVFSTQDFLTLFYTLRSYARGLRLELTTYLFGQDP

Caspase-1 = biological target: T1, Caspase-1 (Homo sapiens, UniProt P29466); design: species or system Escherichia coli;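 also: Caspase-1 enzyme inhibition assay with a peptide substrate; in other assays of this panel Not Active means under 50% inhibition at 10 µM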
T1 sequence (P29466 whole entry): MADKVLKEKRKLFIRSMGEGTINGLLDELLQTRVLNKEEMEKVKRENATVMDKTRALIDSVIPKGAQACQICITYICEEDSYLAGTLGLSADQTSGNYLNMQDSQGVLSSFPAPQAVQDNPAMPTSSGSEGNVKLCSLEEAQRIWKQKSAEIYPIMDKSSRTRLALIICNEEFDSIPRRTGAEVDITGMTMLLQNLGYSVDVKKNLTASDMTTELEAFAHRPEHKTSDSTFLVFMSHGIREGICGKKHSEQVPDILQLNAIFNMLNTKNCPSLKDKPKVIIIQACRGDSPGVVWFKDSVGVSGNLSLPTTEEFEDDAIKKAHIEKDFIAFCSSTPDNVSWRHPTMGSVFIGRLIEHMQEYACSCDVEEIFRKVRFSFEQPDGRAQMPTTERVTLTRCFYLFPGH

[4] = DRUGMATRIX: Sodium/nucleoside co-transporter radioligand binding (ligand: nitrobenzylthioinosine); format: cell membranes, Cavia porcellus, Dunkin-Hartley, Cerebral cortex, Membrane; conditions: Not Active = under 50% inhibition at 10 µM
[5] = biological target: T2, C-X-C chemokine receptor type 1 (Homo sapiens, UniProt P25024); also: in other assays of this panel Not Active means under 50% inhibition at 10 µM
T2 sequence (P25024 whole entry): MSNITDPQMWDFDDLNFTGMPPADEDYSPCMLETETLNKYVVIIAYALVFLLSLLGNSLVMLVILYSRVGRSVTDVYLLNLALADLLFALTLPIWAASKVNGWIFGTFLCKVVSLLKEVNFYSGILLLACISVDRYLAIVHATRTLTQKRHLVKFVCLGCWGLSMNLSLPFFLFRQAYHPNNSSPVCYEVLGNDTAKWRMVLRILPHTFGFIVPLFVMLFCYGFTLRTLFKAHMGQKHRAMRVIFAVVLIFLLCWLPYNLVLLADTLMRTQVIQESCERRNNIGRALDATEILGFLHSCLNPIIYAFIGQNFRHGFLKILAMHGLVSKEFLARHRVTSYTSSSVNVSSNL

[6] = DRUGMATRIX: beta-Lactamase enzyme inhibition (substrate: Nitrocefin); design: species or system Bacillus cereus; conditions: Not Active = under 50% inhibition at 10 µM

Row | Compound | IC50 [1] | Ki [1] | IC50 (Melanocortin receptor 3) | IC50 [2] | Ki [2] | IC50 ([3]; jurkat) | IC50 (Caspase-1) | IC50 [4] | Ki [4] | IC50 [5] | IC50 [6] | Ki [6] | IC50 ([1]; read-out: IC50) | Ki ([1]; read-out: Ki) | IC50 ([3]; read-out: IC50) | Ki [3]
1 | C[C@@H]1C[C@H]2[C@@H]3CCC4=CC(=O)C=C[C@]4(C)[C@@]3(F)[C@@H](O)C[C@]2(C)[C@@]1(O)C(=O)CO [DEXAMETHASONE] | Not Active | Not Active | Not Active | Not Active | Not Active | Not Active | Not Active | Not Active | Not Active | Not Active | Not Active | Not Active | – | – | – | –
2 | CN(C)CC[C@@H](c1ccc(Cl)cc1)c1ccccn1 [DEXCHLORPHENIRAMINE] | – | – | Not Active | Not Active | Not Active | – | Not Active | Not Active | Not Active | Not Active | Not Active | Not Active | 3800 nM | 3700 nM | 1660 nM | 697 nM
3 | C[C@@H]1CC[C@@]2(OC1)O[C@H]1[C@@H](O)[C@H]3[C@@H]4CC[C@H]5C[C@@H](O[C@@H]6O[C@H](CO)[C@H](O[C@@H]7O[C@H](CO)C(O)[C@H](O[C@@H]8OC[C@@H](O)[C@H](O)[C@H]8O)[C@H]7O[C@@H]7O[C@H](CO)[C@H](O)[C@H](O[C@@H]8O[C@H](CO)[C@@H](O)[C@H](O)[C@H]8O)[C@H]7O)[C@H](O)[C@H]6O)[C@H](O)C[C@]5(C)[C@H]4CC[C@]3(C)[C@H]1[C@@H]2C (some centres not stated) [DIGITONIN] | Not Active | Not Active | Not Active | Not Active | Not Active | Not Active | Not Active | Not Active | Not Active | Not Active | Not Active | Not Active | – | – | – | –
4 | OC(CCCN1CCCCC1)(c1ccccc1)c1ccccc1 [DIPHENIDOL] | – | – | Not Active | Not Active | Not Active | – | Not Active | Not Active | Not Active | Not Active | Not Active | Not Active | 4500 nM | 4380 nM | 256 nM | 108 nM
5 | C[C@H]1O[C@@H](n2cc(F)c(=O)[nH]c2=O)[C@H](O)[C@@H]1O [DOXIFLURIDINE] | Not Active | Not Active | Not Active | Not Active | Not Active | Not Active | Not Active | Not Active | Not Active | Not Active | Not Active | Not Active | – | – | – | –
6 | Cn1c(=O)c2c(ncn2CC(O)CO)n(C)c1=O (configuration not stated) [DYPHYLLINE] | Not Active | Not Active | Not Active | Not Active | Not Active | Not Active | Not Active | Not Active | Not Active | Not Active | Not Active | Not Active | – | – | – | –
7 | CC[C@H]1CN2CCc3cc(OC)c(OC)cc3[C@@H]2C[C@@H]1C[C@H]1NCCc2cc(OC)c(OC)cc21 [EMETINE] | Not Active | Not Active | Not Active | Not Active | Not Active | Not Active | Not Active | Not Active | Not Active | Not Active | Not Active | Not Active | – | – | – | –
8 | C[C@@H](CO)NC(=O)[C@@H]1C=C2c3cccc4[nH]cc(c34)C[C@H]2N(C)C1 [ERGONOVINE] | Not Active | Not Active | Not Active | Not Active | Not Active | Not Active | Not Active | Not Active | Not Active | Not Active | Not Active | Not Active | – | – | – | –
9 | COC(=O)CCc1ccc(OCC(O)CNC(C)C)cc1 (configuration not stated) [ESMOLOL] | Not Active | Not Active | Not Active | Not Active | Not Active | Not Active | Not Active | Not Active | Not Active | Not Active | Not Active | Not Active | – | – | – | –
10 | CCC1(C)CC(=O)NC1=O (configuration not stated) [ETHOSUXIMIDE] | Not Active | Not Active | Not Active | Not Active | Not Active | Not Active | Not Active | Not Active | Not Active | Not Active | Not Active | Not Active | – | – | – | –
